Residue numbers refer to the chain shown, from its start.
How the values were obtained:
[1] = target: MlotiK1 CNB domain wild type (Mesorhizobium japonicum, UniProt Q98GN8); assay: 8-NBD cAMP fluorescence binding/competition assay; design: species or system Mesorhizobium loti
[2] = target: T1, MlotiK1 CNB domain T284S/V288S/A352D mutant (Mesorhizobium japonicum, UniProt Q98GN8, A352D/T284S/V288S); assay: 8-NBD cAMP fluorescence binding/competition assay; design: species or system Mesorhizobium loti; settings: for coupling energy for the combination of T284S with V288S/A352D: mutant cycle analysis of ligand binding
T1 sequence (Q98GN8 211-355 T284S/V288S/A352D limits assumed): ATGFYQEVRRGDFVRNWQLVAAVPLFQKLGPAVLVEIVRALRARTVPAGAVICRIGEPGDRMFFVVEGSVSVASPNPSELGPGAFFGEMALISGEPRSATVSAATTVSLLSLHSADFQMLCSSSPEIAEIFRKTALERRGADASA

[3] = target: T2, MlotiK1 CNB domain V288S/A352D mutant (Mesorhizobium japonicum, UniProt Q98GN8, A352D/V288S); assay: 8-NBD cAMP fluorescence competition binding assay; design: species or system Mesorhizobium loti; settings: for coupling energy between V288S and A352D: double mutant cycle analysis of ligand binding
T2 sequence (Q98GN8 211-355 V288S/A352D limits assumed): T1 sequence (Q98GN8 211-355 T284S/V288S/A352D limits assumed) with S74T

[4] = target: T284S/V288S/A352D MlotiK1 potassium channel (Mesorhizobium japonicum, UniProt Q98GN8, A352D/T284S/V288S); assay: 86Rb+ uptake assay in proteoliposomes; assay type: biochemical, Mesorhizobium loti; settings: Hill fit
[5] = tested on: olfactory CNG channel, threonine at C-terminal end of PBC mutated to alanine; settings: threonine to alanine mutant; ref Altenhofen et al., 1991; cited from earlier work
[6] = target: MlotiK1 CNB domain V282L mutant (Mesorhizobium japonicum, UniProt Q98GN8, V282L); assay: 8-NBD cAMP fluorescence competition binding assay; design: species or system Mesorhizobium loti
[7] = target: MlotiK1 CNB domain T284N mutant (Mesorhizobium japonicum, UniProt Q98GN8, T284N); assay: 8-NBD cAMP fluorescence competition binding assay; design: species or system Mesorhizobium loti
[8] = target: MlotiK1 CNB domain T284Q mutant (Mesorhizobium japonicum, UniProt Q98GN8, T284Q); assay: 8-NBD cAMP fluorescence competition binding assay; design: species or system Mesorhizobium loti
[9] = target: MlotiK1 CNB domain T284S mutant (Mesorhizobium japonicum, UniProt Q98GN8, T284S); assay: 8-NBD cAMP fluorescence competition binding assay; design: species or system Mesorhizobium loti
[10] = target: MlotiK1 CNB domain V288A mutant (Mesorhizobium japonicum, UniProt Q98GN8, V288A); assay: 8-NBD cAMP fluorescence competition binding assay; design: species or system Mesorhizobium loti
[11] = target: MlotiK1 CNB domain V288L mutant (Mesorhizobium japonicum, UniProt Q98GN8, V288L); assay: 8-NBD cAMP fluorescence competition binding assay; design: species or system Mesorhizobium loti
[12] = target: MlotiK1 CNB domain V288I mutant (Mesorhizobium japonicum, UniProt Q98GN8, V288I); assay: 8-NBD cAMP fluorescence competition binding assay; design: species or system Mesorhizobium loti
[13] = target: MlotiK1 CNB domain V288S mutant (Mesorhizobium japonicum, UniProt Q98GN8, V288S); assay: 8-NBD cAMP fluorescence competition binding assay; design: species or system Mesorhizobium loti
[14] = target: MlotiK1 CNB domain M299C mutant (Mesorhizobium japonicum, UniProt Q98GN8, M299C); assay: 8-NBD cAMP fluorescence competition binding assay; design: species or system Mesorhizobium loti
[15] = target: MlotiK1 CNB domain M299Q mutant (Mesorhizobium japonicum, UniProt Q98GN8, M299Q); assay: 8-NBD cAMP fluorescence competition binding assay; design: species or system Mesorhizobium loti
[16] = target: MlotiK1 CNB domain A352S mutant (Mesorhizobium japonicum, UniProt Q98GN8, A352S); assay: 8-NBD cAMP fluorescence competition binding assay; design: species or system Mesorhizobium loti; settings: competition with 50 nM 8-NBD cAMP, constant ligand, variable protein, room temperature, pH 7.5
[17] = target: MlotiK1 CNB domain A352D mutant (Mesorhizobium japonicum, UniProt Q98GN8, A352D); assay: 8-NBD cAMP fluorescence competition binding assay; design: species or system Mesorhizobium loti
[18] = target: MlotiK1 CNB domain R348A mutant (Mesorhizobium japonicum, UniProt Q98GN8, R348A); assay: 8-NBD cAMP fluorescence competition binding assay; design: species or system Mesorhizobium loti; settings: modified titration
[19] = target: MlotiK1 CNB domain R348N mutant (Mesorhizobium japonicum, UniProt Q98GN8, R348N); assay: 8-NBD cAMP fluorescence competition binding assay; design: species or system Mesorhizobium loti; settings: affinities (Kd), range stated over R348N, R348Q and R348K for cAMP and cGMP
[20] = target: MlotiK1 CNB domain R348Q mutant (Mesorhizobium japonicum, UniProt Q98GN8, R348Q); assay: 8-NBD cAMP fluorescence competition binding assay; design: species or system Mesorhizobium loti; settings: affinities (Kd), range stated over R348N, R348Q and R348K for cAMP and cGMP
[21] = target: MlotiK1 CNB domain R348K mutant (Mesorhizobium japonicum, UniProt Q98GN8, R348K); assay: 8-NBD cAMP fluorescence competition binding assay; design: species or system Mesorhizobium loti; settings: affinities (Kd), range stated over R348N, R348Q and R348K for cAMP and cGMP
[22] = target: MlotiK1 CNB domain R348Y mutant (Mesorhizobium japonicum, UniProt Q98GN8, R348Y); assay: 8-NBD cAMP fluorescence competition binding assay; design: species or system Mesorhizobium loti; settings: modified titration
[23] = target: MlotiK1 CNB domain V288S/A352S mutant (Mesorhizobium japonicum, UniProt Q98GN8, A352S/V288S); assay: 8-NBD cAMP fluorescence competition binding assay; design: species or system Mesorhizobium loti
[24] = tested on: bovine rod photoreceptor CNG channel; settings: ref Altenhofen et al., 1991; cited from earlier work
[25] = tested on: bovine olfactory CNG channel; settings: ref Altenhofen et al., 1991; cited from earlier work
[26] = tested on: CNB β domain from the cGMP-dependent protein kinase I; settings: ref Huang et al., 2014; cited from earlier work

Sequence of T284S/V288S/A352D MlotiK1 potassium channel (Q98GN8 whole entry T284S/V288S/A352D): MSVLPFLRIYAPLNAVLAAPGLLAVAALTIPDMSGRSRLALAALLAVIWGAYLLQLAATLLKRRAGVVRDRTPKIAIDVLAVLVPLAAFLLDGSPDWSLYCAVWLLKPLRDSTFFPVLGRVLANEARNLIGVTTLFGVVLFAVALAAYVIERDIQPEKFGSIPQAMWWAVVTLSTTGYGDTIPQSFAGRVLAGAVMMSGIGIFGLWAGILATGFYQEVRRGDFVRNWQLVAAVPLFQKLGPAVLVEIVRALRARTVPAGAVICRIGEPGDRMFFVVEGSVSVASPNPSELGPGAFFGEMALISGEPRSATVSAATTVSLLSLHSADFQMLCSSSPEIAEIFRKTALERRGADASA
Sequence of MlotiK1 CNB domain wild type (Q98GN8 211-355 limits assumed): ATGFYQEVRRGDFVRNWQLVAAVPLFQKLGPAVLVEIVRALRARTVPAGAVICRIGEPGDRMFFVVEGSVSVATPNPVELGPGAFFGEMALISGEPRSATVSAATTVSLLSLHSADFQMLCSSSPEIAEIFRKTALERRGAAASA
Sequence of MlotiK1 CNB domain V288S mutant (Q98GN8 211-355 V288S limits assumed): as the sequence (Q98GN8 211-355 limits assumed) above, with V78S counted along it
Sequence of MlotiK1 CNB domain R348N mutant (Q98GN8 211-355 R348N limits assumed): as the sequence (Q98GN8 211-355 limits assumed) above, with R138N counted along it
Sequence of MlotiK1 CNB domain M299C mutant (Q98GN8 211-355 M299C limits assumed): as the sequence (Q98GN8 211-355 limits assumed) above, with M89C counted along it
Sequence of MlotiK1 CNB domain R348A mutant (Q98GN8 211-355 R348A limits assumed): as the sequence (Q98GN8 211-355 limits assumed) above, with R138A counted along it
Sequence of MlotiK1 CNB domain V288I mutant (Q98GN8 211-355 V288I limits assumed): as the sequence (Q98GN8 211-355 limits assumed) above, with V78I counted along it
Sequence of MlotiK1 CNB domain V288A mutant (Q98GN8 211-355 V288A limits assumed): as the sequence (Q98GN8 211-355 limits assumed) above, with V78A counted along it
Sequence of MlotiK1 CNB domain T284Q mutant (Q98GN8 211-355 T284Q limits assumed): as the sequence (Q98GN8 211-355 limits assumed) above, with T74Q counted along it
Sequence of MlotiK1 CNB domain V282L mutant (Q98GN8 211-355 V282L limits assumed): as the sequence (Q98GN8 211-355 limits assumed) above, with V72L counted along it
Sequence of MlotiK1 CNB domain M299Q mutant (Q98GN8 211-355 M299Q limits assumed): as the sequence (Q98GN8 211-355 limits assumed) above, with M89Q counted along it
Sequence of MlotiK1 CNB domain T284N mutant (Q98GN8 211-355 T284N limits assumed): as the sequence (Q98GN8 211-355 limits assumed) above, with T74N counted along it
Sequence of MlotiK1 CNB domain V288L mutant (Q98GN8 211-355 V288L limits assumed): as the sequence (Q98GN8 211-355 limits assumed) above, with V78L counted along it
Sequence of MlotiK1 CNB domain A352D mutant (Q98GN8 211-355 A352D limits assumed): as the sequence (Q98GN8 211-355 limits assumed) above, with A142D counted along it
Sequence of MlotiK1 CNB domain R348K mutant (Q98GN8 211-355 R348K limits assumed): as the sequence (Q98GN8 211-355 limits assumed) above, with R138K counted along it
Sequence of MlotiK1 CNB domain A352S mutant (Q98GN8 211-355 A352S limits assumed): as the sequence (Q98GN8 211-355 limits assumed) above, with A142S counted along it
Sequence of MlotiK1 CNB domain T284S mutant (Q98GN8 211-355 T284S limits assumed): as the sequence (Q98GN8 211-355 limits assumed) above, with T74S counted along it
Sequence of MlotiK1 CNB domain R348Y mutant (Q98GN8 211-355 R348Y limits assumed): as the sequence (Q98GN8 211-355 limits assumed) above, with R138Y counted along it
Sequence of MlotiK1 CNB domain R348Q mutant (Q98GN8 211-355 R348Q limits assumed): as the sequence (Q98GN8 211-355 limits assumed) above, with R138Q counted along it
Sequence of MlotiK1 CNB domain V288S/A352S mutant (Q98GN8 211-355 V288S/A352S limits assumed): as the sequence (Q98GN8 211-355 limits assumed) above, with V78S, A142S counted along it

With Nc1ncnc2c1nc(SCCNc1ccc([N+](=O)[O-])c3nonc13)n2[C@@H]1O[C@@H]2COP(=O)(O)O[C@H]2[C@H]1O [8-NBD cAMP] the Kd [1] was 171 ± 20 nM and the Kd [2] was 2000 nM.
With Nc1ncnc2c1ncn2[C@@H]1O[C@@H]2COP(=O)(O)O[C@H]2[C@H]1O [cAMP] the “coupling energy between V288S and A352D” value [3] was -0.78 ± 0.18 kcal/mol, the “coupling energy for the combination of T284S with V288S/A352D” value [2] was 0.14 ± 0.19 kcal/mol and the Hill coefficient [4] was 0.84. For the same compound, the “preference for cAMP” value [5] was 3.3 fold.
With Nc1nc2c(ncn2[C@@H]2O[C@@H]3COP(=O)(O)O[C@H]3[C@H]2O)c(=O)[nH]1 [cGMP] the Kd [1] was 1730 nM, the Kd [6] was 8950 nM and the Kd [7] was 6560 nM. For the same compound, the Kd [8] was 6950 nM, the Kd [9] was 2980 nM and the Kd [10] was 2540 nM. The Kd [11] was 996 ± 163 nM, the Kd [12] was 797 ± 118 nM and the Kd [13] was 2100 nM. The “change in ligand-binding energy by V288S alone” value ([13]; mutant cycle, relative to wild type) was 0.12 ± 0.10 kcal/mol, the Kd [14] was 2940 nM and the Kd [15] was 11600 nM. For the same compound, the Kd [16] was 727 ± 160 nM, the Kd [17] was 850 ± 121 nM and the Kd [18] was 39000 ± 2500 nM. The Kd [19] was 16000 to 46000 nM, the Kd [20] was 16000 to 46000 nM and the Kd [21] was 16000 to 46000 nM. For the same compound, the Kd [22] was 33000 ± 4800 nM, the Kd [23] was 749 ± 75 nM and the Kd [3] was 351 ± 95 nM. For the same compound, the “coupling energy between V288S and A352D” value [3] was -0.64 ± 0.20 kcal/mol, the “change in ligand-binding energy by V288S when combined with A352D” value ([3]; mutant cycle, relative to A352D) was -0.52 ± 0.18 kcal/mol and the Kd [2] was 336 ± 126 nM. For the same compound, the “coupling energy for the combination of T284S with V288S/A352D” value [2] was -0.34 ± 0.29 kcal/mol, the Hill coefficient [4] was 1.3 and the “sensitivity to cGMP relative to cAMP (ratio of the K1/2 for channel activation)” value [24] was roughly 40 times. For the same compound, the “sensitivity to cGMP relative to cAMP (ratio of the K1/2 for channel activation)” value [25] was roughly 40 times and the “selectivity for cGMP over cAMP” value [26] was roughly 250 times.

From PMC4076524 (The Journal of General Physiology, 2014)
